# Target: T1, human full-length MKNK1 (Homo sapiens, UniProt Q9BUB5, T385D)
# T1 construct: GST (N); purchased Carna Biosciences 02-145; host or cells: insect cells (baculovirus expression system)
# Assay: MKNK1 kinase high ATP assay (TR-FRET)
# Format: biochemical
# Details: high ATP (2 mM final), 15 min preincubation with enzyme, 30 min reaction at 22° C.
# Procedure: MKNK1-inhibitory activity at high ATP of compounds of the present invention after their preincubation with MKNK1 was quantified employing the TR-FRET-based MKNK1 high ATP assay as described in the following paragraphs.
# A recombinant fusion protein of Glutathione-S-Transferase (GST, N-terminally) and human full-length MKNK1 (amino acids 1-424 and T344D of accession number BAA 19885.1), expressed in insect cells using baculovirus expression system and purified via glutathione sepharose affinity chromatography, was purchased from Carna Biosciences (product no 02-145) and used as enzyme. As substrate for the kinase reaction the biotinylated peptide biotin-Ahx-IKKRKLTRRKSLKG (C-terminus in amide form) was used, which can be purchased e.g. from the company Biosyntan (Berlin-Buch, Germany).
# For the assay 50 nL of a 100 fold concentrated solution of the test compound in DMSO was pipetted into a black low volume 384 well microtiter plate (Greiner Bio-One, Frickenhausen, Germany), 2 μL of a solution of MKNK1 in aqueous assay buffer [50 mM HEPES pH 7.5, 5 mM MgCl2, 1.0 mM dithiothreitol, 0.005% (v/v) Nonidet-P40 (Sigma)] was added and the mixture was incubated for 15 min at 22° C. to allow pre-binding of the test compounds to the enzyme before the start of the kinase reaction. Then the kinase reaction was started by the addition of 3 μL of a solution of adenosine-tri-phosphate (ATP, 3.3 mM=>final conc. in the 5 μL assay volume is 2 mM) and substrate (0.1 μM=>final conc. in the 5 μL assay volume is 0.06 μM) in assay buffer and the resulting mixture was incubated for a reaction time of 30 min at 22° C. The concentration of MKNK1 was adjusted depending of the activity of the enzyme lot and was chosen appropriate to have the assay in the linear range, typical concentrations were in the range of 0.003 μg/mL. The reaction was stopped by the addition of 5 μL of a solution of TR-FRET detection reagents (5 nM streptavidine-XL665 [Cisbio Bioassays, Codolet, France] and 1 nM anti-ribosomal protein S6 (pSer236)-antibody from Invitrogen [#44921G] and 1 nM LANCE EU-W1024 Labeled ProteinG [Perkin-Elmer, product no. AD0071]) in an aqueous EDTA-solution (100 mM EDTA, 0.1% (w/v) bovine serum albumin in 50 mM HEPES pH 7.5).
# The resulting mixture was incubated for 1 h at 22° C. to allow the formation of complex between the phosphorylated biotinylated peptide and the detection reagents. Subsequently the amount of phosphorylated substrate was evaluated by measurement of the resonance energy transfer from the Eu-chelate to the streptavidine-XL. Therefore, the fluorescence emissions at 620 nm and 665 nm after excitation at 350 nm were measured in a TR-FRET reader, e.g. a Rubystar (BMG Labtechnologies, Offenburg, Germany) or a Viewlux (Perkin-Elmer). The ratio of the emissions at 665 nm and at […] was taken as the measure for the amount of phosphorylated substrate. The data were normalised (enzyme reaction without inhibitor=0% inhibition, all other assay components but no enzyme=100% inhibition).
# T1 sequence (Q9BUB5 1-424 isoform Q9BUB5-2 T344D): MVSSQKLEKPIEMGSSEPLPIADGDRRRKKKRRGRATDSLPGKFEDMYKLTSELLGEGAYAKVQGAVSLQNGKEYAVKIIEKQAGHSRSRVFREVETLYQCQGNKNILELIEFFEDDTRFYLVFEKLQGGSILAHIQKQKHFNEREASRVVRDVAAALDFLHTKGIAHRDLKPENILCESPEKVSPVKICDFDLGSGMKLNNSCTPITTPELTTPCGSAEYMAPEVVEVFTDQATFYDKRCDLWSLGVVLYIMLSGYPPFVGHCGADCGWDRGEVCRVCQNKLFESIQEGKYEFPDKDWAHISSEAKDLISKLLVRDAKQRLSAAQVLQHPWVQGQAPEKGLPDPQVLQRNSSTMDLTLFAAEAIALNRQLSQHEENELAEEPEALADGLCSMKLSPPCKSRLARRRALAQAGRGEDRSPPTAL
row,Structure (SMILES),IC50 [nM]
1,"COc1cc2[nH]ncc2cc1Nc1ncnc2[nH]cc(C(F)(F)F)c12 [Example 49, N-(6-Methoxy-1H-indazol-5-yl)-5-(trifluoromethyl)-7H-pyrrolo[2,3-d]pyrimidin-4-amine]",16
2,"COc1cc2[nH]ncc2cc1Nc1ncnc2[nH]cc(C)c12 [Example 39, N-(6-Methoxy-1H-indazol-5-yl)-5-methyl-7H-pyrrolo[2,3-d]pyrimidin-4-amine]",1
3,"COc1cc2[nH]ncc2cc1Nc1ncnc2[nH]ccc12 [Example 2, N-(6-methoxy-1H-indazol-5-yl)-7H-pyrrolo[2,3-d]pyrimidin-4-amine]",17
4,"COc1cc2[nH]ncc2cc1Nc1ncnc2[nH]c(C#CCO)cc12 [Example 22, 3-{4-[(6-Methoxy-1H-indazol-5-yl)amino]-7H-pyrrolo[2,3-d]pyrimidin-6-yl}prop-2-yn-1-ol]",11
5,"CC(C)Oc1cc2[nH]ncc2cc1Nc1ncnc2[nH]c(CCCO)cc12 [Example 33, 3-(4-{[6-(Propan-2-yloxy)-1H-indazol-5-yl]amino}-7H-pyrrolo[2,3-d]pyrimidin-6-yl)propan-1-ol]",35
6,"CCOc1cc2[nH]ncc2cc1Nc1ncnc2[nH]c(CC)c(C)c12 [Example 44, N-(6-Ethoxy-1H-indazol-5-yl)-6-ethyl-5-methyl-7H-pyrrolo[2,3-d]pyrimidin-4-amine]",3
7,"COc1cc2[nH]ncc2cc1Nc1ncnc2[nH]c(S(=O)(=O)c3ccccc3)cc12 [Example 50, N-(6-Methoxy-1H-indazol-5-yl)-6-(phenylsulfonyl)-7H-pyrrolo[2,3-d]pyrimidin-4-amine]",< 1
8,"CC(C)Oc1cc2[nH]ncc2cc1Nc1ncnc2[nH]cc(C(=O)O)c12 [Example 28, 4-{[6-(Propan-2-yloxy)-1H-indazol-5-yl]amino}-7H-pyrrolo[2,3-d]pyrimidine-5-carboxylic acid]",184

# — patent US20150252047A1, “SUBSTITUTED INDAZOL-PYRROLOPYRIMIDINES USEFUL IN THE TREATMENT OF HYPERPROLIFERATIVE DISEASES” (BAYER PHARMA AKTIENGESELLSCHAFT, priority 2012, published 2015)
